From US8895504B2, “Amylin derivatives” (priority 2008, dated 2014)
*1 amine or outer side, *2 acyl side, *3 side chain or, on linkers, in order; H or OH if unused. Where a SMILES comes first, the peptide text is derived from it. Bridges are numbered along the chain shown (N, C = ends). The star is where a group is joined. C20 diacid = O=C(O)CCCCCCCCCCCCCCCCCCC(=O)*; C18 diacid = O=C(O)CCCCCCCCCCCCCCCCC(=O)*; γGlu = O=C(O)[C@H](CCC(=O)[*:2])N[*:1]; AEEA = NCCOCCOCC(=O)O

Assays:
[1] = target: T1, Amylin 3(a) receptor (human calcitonin receptor (CTa) and RAMP-3) (Homo sapiens, UniProt O60896+P30988); assay: Luciferase assay (III), BHK Amylin 3(a)//CRE-luc cells; type: cell-based; details: BHK cells with Amylin 3(a) receptor and CRE luciferase reporter, 4 hours incubation; read-out: Potency Luciferase
T1 construct: expressed in transfected cells; host or cells: BHK570 cells, stably transfected with a CRE-luciferase reporter
T1 sequence (O60896 24-148): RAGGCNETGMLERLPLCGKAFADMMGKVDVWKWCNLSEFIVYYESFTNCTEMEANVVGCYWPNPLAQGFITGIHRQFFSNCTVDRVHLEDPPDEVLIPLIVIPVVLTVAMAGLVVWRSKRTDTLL
T1 sequence (P30988 25-474): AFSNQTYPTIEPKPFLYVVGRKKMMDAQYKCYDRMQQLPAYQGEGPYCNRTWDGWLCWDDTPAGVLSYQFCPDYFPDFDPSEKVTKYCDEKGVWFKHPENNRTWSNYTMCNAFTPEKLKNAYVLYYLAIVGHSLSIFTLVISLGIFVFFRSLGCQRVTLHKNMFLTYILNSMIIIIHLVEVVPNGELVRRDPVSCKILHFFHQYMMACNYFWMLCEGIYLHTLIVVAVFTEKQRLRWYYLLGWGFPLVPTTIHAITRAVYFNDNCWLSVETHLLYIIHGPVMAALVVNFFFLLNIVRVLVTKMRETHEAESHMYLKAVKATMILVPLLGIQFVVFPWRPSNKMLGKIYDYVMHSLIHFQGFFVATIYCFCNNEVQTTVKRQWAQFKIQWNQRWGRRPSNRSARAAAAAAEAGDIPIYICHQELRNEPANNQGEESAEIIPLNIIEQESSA
Outline: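 BHK570 cells stably expressing CTa, RAMP-3 and a CRE-luciferase reporter, seeded at about 20,000 cells/well and grown overnight. Cells were exposed to standard or sample for 4 h at 37° C in phenol red-free DMEM with 10% FBS and 10 mM Hepes, pH 7,4. Luminescence was read after 30 min LucLite at room temperature.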

[2] = Assay (V) PK - determination of T½ in mini-pig; type: in vivo; details: minipig, sc; terminal plasma half-life, subcutaneous, approx 2 nmol/kg, male Göttingen mini-pigs
Outline: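 Male Göttingen mini-pigs (5–12 months, 7–35 kg) got a single s.c. neck injection of approx 2 nmol/kg; plasma sampled via central venous catheter predose to 240 h (some to 288 h). Amylin measured by sandwich ELISA; T½ = ln 2/λz from non-compartmental analysis of individual profiles.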

food intake = assay: Pharmacological Assay (I) - efficacy testing on appetite, ad libitum fed rat model; type: in vivo, Sprague Dawley (SD) rats; details: 30 nmol/kg vs vehicle, ad libitum fed rats, n=5-7, 0-48 hours
From the text: Assays Pharmacological Assay (I)—Experimental Protocol for Efficacy Testing on Appetite with an Amylin Derivative, Using an Ad Libitum Fed Rat Model. Sprague Dawley (SD) rats from Taconic Europe, Denmark are used for the experiments. The rats have a body weight 200-250 g at the start of experiment. The rats arrive at least 10-14 days before start of experiment to allow acclimatization to experimental settings. During this period the animals are handled at least 2 times. After arrival rats are housed individually for one week in a reversed light/dark phase (meaning that lights are off during daytime and on during nighttime) for two weeks. Since rats are normally active and eat their major part of their daily food intake during the dark period, rats are dosed in the morning right before lights are turned off. This set-up results in the lowest data variation and highest test sensitivity. The experiment is conducted in the rats' home cages and rats have free access to food and water throughout the acclimatization period and the experiment period. Each dose of derivative is tested in a group of 5-8 rats. A vehicle group of 6-8 rats is included in each set of testing. Rats are dosed once according to body weight with a 0.01-3 mg/kg solution administered intraperitoneally (ip), orally (po) or subcutaneously (sc). The time of dosing is recorded for each group. After dosing, the rats are returned to their home cages, where they then have access to food and water. The food consumption is recorded individually continuously by on-line registration or manually every hour for 7 hours, and then after 24 h and sometimes 48 h. At the end of the experimental session, the animals are euthanized. The individual data are recorded in Microsoft excel sheets. Outliers are excluded after applying the Grubbs statistical evaluation test for outliers, and the result is presented graphically using the GraphPad Prism program.

Structure (SMILES)	EC50 [1] [nM]	half-life [2] [h]	food intake over a period of 48 hours (food intake)
CC[C@H](C)[C@H](NC(=O)[C@@H]1CCCN1C(=O)CNC(=O)[C@H](Cc1ccccc1)NC(=O)[C@H](CC(N)=O)NC(=O)[C@H](CC(N)=O)NC(=O)[C@H](CO)NC(=O)[C@H](CO)NC(=O)[C@H](CCCNC(=N)N)NC(=O)[C@H](Cc1c[nH]cn1)NC(=O)[C@H](CC(C)C)NC(=O)[C@H](Cc1ccccc1)NC(=O)[C@H](CC(N)=O)NC(=O)[C@H](C)NC(=O)[C@H](CC(C)C)NC(=O)[C@H](CCCNC(=N)N)NC(=O)[C@H](CCC(N)=O)NC(=O)[C@@H](NC(=O)[C@H](C)NC(=O)[C@@H]1CSSC[C@H](NC(=O)[C@H](Cc2c[nH]cn2)NC(=O)[C@H](Cc2c[nH]cn2)NC(=O)CC[C@H](NC(=O)CCCCCCCCCCCCCCCCCCC(=O)O)C(=O)O)C(=O)N[C@@H](CC(N)=O)C(=O)N[C@@H]([C@@H](C)O)C(=O)N[C@@H](C)C(=O)N[C@@H]([C@@H](C)O)C(=O)N1)[C@@H](C)O)C(=O)N[C@@H](CC(C)C)C(=O)N1CCC[C@H]1C(=O)N1CCC[C@H]1C(=O)N[C@H](C(=O)N[C@@H](CC(N)=O)C(=O)N[C@H](C(=O)NCC(=O)N[C@@H](CO)C(=O)N[C@@H](CC(N)=O)C(=O)N[C@H](C(=O)N[C@@H](Cc1ccc(O)cc1)C(N)=O)[C@@H](C)O)C(C)C)[C@@H](C)O [Example 47, N-alpha-[(S)-4-Carboxy-4-(19-carboxynonadecanoylamino)butyryl]-His-[His1,His17,Arg18]-pramlintide] ({C20 diacid-γGlu}-HHCNTATCATQRLANFLHRSSNNFGPILPPTNVGSNTY-NH2; disulfide 3-8)	0.2	30	effectively reducing food intake
CC[C@H](C)[C@H](NC(=O)[C@@H]1CCCN1C(=O)CNC(=O)[C@H](Cc1ccccc1)NC(=O)[C@H](CC(N)=O)NC(=O)[C@H](CC(N)=O)NC(=O)[C@H](CO)NC(=O)[C@H](CO)NC(=O)[C@H](Cc1c[nH]cn1)NC(=O)[C@H](Cc1c[nH]cn1)NC(=O)[C@H](CC(C)C)NC(=O)[C@H](Cc1ccccc1)NC(=O)[C@H](CC(N)=O)NC(=O)[C@H](C)NC(=O)[C@H](CC(C)C)NC(=O)[C@H](CCCNC(=N)N)NC(=O)[C@H](CCC(N)=O)NC(=O)[C@@H](NC(=O)[C@H](C)NC(=O)[C@@H]1CSSC[C@H](NC(=O)[C@H](Cc2c[nH]cn2)NC(=O)[C@H](Cc2c[nH]cn2)NC(=O)COCCOCCNC(=O)CC[C@H](NC(=O)CCCCCCCCCCCCCCCCCCC(=O)O)C(=O)O)C(=O)N[C@@H](CC(N)=O)C(=O)N[C@@H]([C@@H](C)O)C(=O)N[C@@H](C)C(=O)N[C@@H]([C@@H](C)O)C(=O)N1)[C@@H](C)O)C(=O)N[C@@H](CC(C)C)C(=O)N1CCC[C@H]1C(=O)N1CCC[C@H]1C(=O)N[C@H](C(=O)N[C@@H](CC(N)=O)C(=O)N[C@H](C(=O)NCC(=O)N[C@@H](CO)C(=O)N[C@@H](CC(N)=O)C(=O)N[C@H](C(=O)N[C@@H](Cc1ccc(O)cc1)C(N)=O)[C@@H](C)O)C(C)C)[C@@H](C)O [Example 38, N-alpha-[2-(2-{2-[4-(S)-Carboxy-4-(19-carboxynonadecanoylamino)butyrylamino]ethoxy}ethoxy)acetyl]-His-[His1,His17]-pramlintide] ({C20 diacid-γGlu-AEEA}-HHCNTATCATQRLANFLHHSSNNFGPILPPTNVGSNTY-NH2; disulfide 3-8)	0.1	–	effectively reducing food intake
CC[C@H](C)[C@H](NC(=O)[C@@H]1CCCN1C(=O)CNC(=O)[C@H](Cc1ccccc1)NC(=O)[C@H](CC(N)=O)NC(=O)[C@H](CC(N)=O)NC(=O)[C@H](CO)NC(=O)[C@H](CO)NC(=O)[C@H](Cc1c[nH]cn1)NC(=O)[C@H](Cc1c[nH]cn1)NC(=O)[C@H](CC(C)C)NC(=O)[C@H](Cc1ccccc1)NC(=O)[C@H](CC(N)=O)NC(=O)[C@H](C)NC(=O)[C@H](CC(C)C)NC(=O)[C@H](CCCNC(=N)N)NC(=O)[C@H](CCC(N)=O)NC(=O)[C@@H](NC(=O)[C@H](C)NC(=O)[C@@H]1CSSC[C@H](NC(=O)[C@H](Cc2c[nH]cn2)NC(=O)[C@H](Cc2c[nH]cn2)NC(=O)CC[C@H](NC(=O)CCCCCCCCCCCCCCCCCCC(=O)O)C(=O)O)C(=O)N[C@@H](CC(N)=O)C(=O)N[C@@H]([C@@H](C)O)C(=O)N[C@@H](C)C(=O)N[C@@H]([C@@H](C)O)C(=O)N1)[C@@H](C)O)C(=O)N[C@@H](CC(C)C)C(=O)N1CCC[C@H]1C(=O)N1CCC[C@H]1C(=O)N[C@H](C(=O)N[C@@H](CC(N)=O)C(=O)N[C@H](C(=O)NCC(=O)N[C@@H](CO)C(=O)N[C@@H](CC(N)=O)C(=O)N[C@H](C(=O)N[C@@H](Cc1ccc(O)cc1)C(N)=O)[C@@H](C)O)C(C)C)[C@@H](C)O [Example 27, N-alpha-[(S)-4-Carboxy-4-(19-carboxynonadecanoylamino)butyryl]-His-[His1,His17]-pramlintide] ({C20 diacid-γGlu}-HHCNTATCATQRLANFLHHSSNNFGPILPPTNVGSNTY-NH2; disulfide 3-8)	0.1	64	effectively reducing food intake

Second part, led by results:

EC50 [1] [nM]	half-life [2] [h]	Structure (SMILES)	food intake over a period of 48 hours (food intake)
0.03	–	CC[C@H](C)[C@H](NC(=O)[C@@H]1CCCN1C(=O)CNC(=O)[C@H](Cc1ccccc1)NC(=O)[C@H](CC(N)=O)NC(=O)[C@H](CC(N)=O)NC(=O)[C@H](CO)NC(=O)[C@H](CO)NC(=O)[C@H](Cc1c[nH]cn1)NC(=O)[C@H](Cc1c[nH]cn1)NC(=O)[C@H](CC(C)C)NC(=O)[C@H](Cc1ccccc1)NC(=O)[C@H](CC(N)=O)NC(=O)[C@H](C)NC(=O)[C@H](CC(C)C)NC(=O)[C@H](CCCNC(=N)N)NC(=O)[C@H](CCC(N)=O)NC(=O)[C@@H](NC(=O)[C@H](C)NC(=O)[C@@H]1CSSC[C@H](NC(=O)[C@H](CCCNC(=N)N)NC(=O)COCCOCCNC(=O)COCCOCCNC(=O)CC[C@H](NC(=O)CCCCCCCCCCCCCCCCC(=O)O)C(=O)O)C(=O)N[C@@H](CC(N)=O)C(=O)N[C@@H]([C@@H](C)O)C(=O)N[C@@H](C)C(=O)N[C@@H]([C@@H](C)O)C(=O)N1)[C@@H](C)O)C(=O)N[C@@H](CC(C)C)C(=O)N1CCC[C@H]1C(=O)N1CCC[C@H]1C(=O)N[C@H](C(=O)N[C@@H](CC(N)=O)C(=O)N[C@H](C(=O)NCC(=O)N[C@@H](CO)C(=O)N[C@@H](CC(N)=O)C(=O)N[C@H](C(=O)N[C@@H](Cc1ccc(O)cc1)C(N)=O)[C@@H](C)O)C(C)C)[C@@H](C)O [Example 45, N-alpha-[2-(2-{2-[2-(2-{2-[(S)-4-Carboxy-4-(17-carboxyheptadecanoylamino)butyrylamino]ethoxy}ethoxy)acetylamino]ethoxy}ethoxy)acetyl][Arg1,His17]-pramlintide] ({C18 diacid-γGlu-AEEA-AEEA}-RCNTATCATQRLANFLHHSSNNFGPILPPTNVGSNTY-NH2; disulfide 2-7)	effectively reducing food intake
0.02	41	CC[C@H](C)[C@H](NC(=O)[C@@H]1CCCN1C(=O)CNC(=O)[C@H](Cc1ccccc1)NC(=O)[C@H](CC(N)=O)NC(=O)[C@H](CC(N)=O)NC(=O)[C@H](CO)NC(=O)[C@H](CO)NC(=O)[C@H](Cc1c[nH]cn1)NC(=O)[C@H](Cc1c[nH]cn1)NC(=O)[C@H](CC(C)C)NC(=O)[C@H](Cc1ccccc1)NC(=O)[C@H](CC(N)=O)NC(=O)[C@H](C)NC(=O)[C@H](CC(C)C)NC(=O)[C@H](CCCNC(=N)N)NC(=O)[C@H](CCC(N)=O)NC(=O)[C@@H](NC(=O)[C@H](C)NC(=O)[C@@H]1CSSC[C@H](NC(=O)[C@H](Cc2c[nH]cn2)NC(=O)[C@H](Cc2c[nH]cn2)NC(=O)CC[C@H](NC(=O)CCCCCCCCCCCCCCCCC(=O)O)C(=O)O)C(=O)N[C@@H](CC(N)=O)C(=O)N[C@@H]([C@@H](C)O)C(=O)N[C@@H](C)C(=O)N[C@@H]([C@@H](C)O)C(=O)N1)[C@@H](C)O)C(=O)N[C@@H](CC(C)C)C(=O)N1CCC[C@H]1C(=O)N1CCC[C@H]1C(=O)N[C@H](C(=O)N[C@@H](CC(N)=O)C(=O)N[C@H](C(=O)NCC(=O)N[C@@H](CO)C(=O)N[C@@H](CC(N)=O)C(=O)N[C@H](C(=O)N[C@@H](Cc1ccc(O)cc1)C(N)=O)[C@@H](C)O)C(C)C)[C@@H](C)O [Example 31, N-alpha-[(S)-4-Carboxy-4-(17-carboxyheptadecanoylamino)butyryl]-His-[His1,His17]-pramlintide] ({C18 diacid-γGlu}-HHCNTATCATQRLANFLHHSSNNFGPILPPTNVGSNTY-NH2; disulfide 3-8)	effectively reducing food intake
